Laboratory results: the NIST ThermoML archive (doi:10.1016/j.jct.2016.12.019)
Numbers after ± are expanded uncertainties.

Experiment: xn = mol fraction of the nth substance listed
Conditions: 100 kPa, Liquid; for viscosity: Capillary tube (Ostwald / Ubbelohde) method; for speed of sound: Frequency=2 MHz, Linear variable-path acoustic interferometer; for mass density: Vibrating tube method

CCN(CC)c1ccccc1 [N,N-diethylaniline] + CCCCCCCCCO
Conditions | mass density [kg/m3] | speed of sound [m/s] | viscosity [mPa·s]
303.15 K, x1 = 0.1136 | 829.82 ± 1.1 | 1359 ± 8.3 | 6.563 ± 0.18
303.15 K, x1 = 0.2326 | 840.12 ± 1.1 | 1362.8 ± 8.3 | 5.409 ± 0.15
303.15 K, x1 = 0.3469 | 850.43 ± 1.1 | 1367.6 ± 8.4 | 4.509 ± 0.12
303.15 K, x1 = 0.4541 | 860.76 ± 1.1 | 1373.5 ± 8.4 | 3.804 ± 0.1
303.15 K, x1 = 0.5549 | 871.13 ± 1.1 | 1380.2 ± 8.4 | 3.248 ± 0.088
303.15 K, x1 = 0.6498 | 881.45 ± 1.1 | 1387.8 ± 8.5 | 2.805 ± 0.076
303.15 K, x1 = 0.7293 | 890.62 ± 1.1 | 1395.3 ± 8.5 | 2.488 ± 0.068
303.15 K, x1 = 0.8244 | 902.24 ± 1.1 | 1405.9 ± 8.6 | 2.166 ± 0.059
303.15 K, x1 = 0.9041 | 912.58 ± 1.1 | 1416.7 ± 8.7 | 1.938 ± 0.053
303.15 K, x1 = 1 | 925.8 ± 1.1 | 1432 ± 8.7 | 1.711 ± 0.046
308.15 K, x1 = 0.1136 | 826.24 ± 1.1 | 1336.3 ± 8.2 | 5.491 ± 0.15
308.15 K, x1 = 0.2326 | 836.48 ± 1.1 | 1340.6 ± 8.2 | 4.557 ± 0.12
308.15 K, x1 = 0.3469 | 846.76 ± 1.1 | 1346.2 ± 8.2 | 3.828 ± 0.1
308.15 K, x1 = 0.4541 | 857.04 ± 1.1 | 1352.7 ± 8.3 | 3.252 ± 0.088
308.15 K, x1 = 0.5549 | 867.33 ± 1.1 | 1360.1 ± 8.3 | 2.794 ± 0.076
308.15 K, x1 = 0.6498 | 877.63 ± 1.1 | 1368.3 ± 8.4 | 2.427 ± 0.066
308.15 K, x1 = 0.7293 | 886.75 ± 1.1 | 1376.3 ± 8.4 | 2.164 ± 0.059
308.15 K, x1 = 0.8244 | 898.32 ± 1.1 | 1387.7 ± 8.5 | 1.898 ± 0.051
308.15 K, x1 = 0.9041 | 908.61 ± 1.1 | 1399.2 ± 8.5 | 1.714 ± 0.046
308.15 K, x1 = 1 | 921.8 ± 1.1 | 1416 ± 8.6 | 1.537 ± 0.041
313.15 K, x1 = 0.1136 | 822.7 ± 1.1 | 1315.3 ± 8 | 4.791 ± 0.13
313.15 K, x1 = 0.2326 | 832.9 ± 1.1 | 1320 ± 8.1 | 3.988 ± 0.11
313.15 K, x1 = 0.3469 | 843.13 ± 1.1 | 1325.9 ± 8.1 | 3.362 ± 0.092
313.15 K, x1 = 0.4541 | 853.37 ± 1.1 | 1332.7 ± 8.2 | 2.867 ± 0.078
313.15 K, x1 = 0.5549 | 863.63 ± 1.1 | 1340.4 ± 8.2 | 2.471 ± 0.067
313.15 K, x1 = 0.6498 | 873.88 ± 1.1 | 1348.9 ± 8.2 | 2.154 ± 0.058
313.15 K, x1 = 0.7293 | 882.96 ± 1.1 | 1357.1 ± 8.3 | 1.926 ± 0.052
313.15 K, x1 = 0.8244 | 894.48 ± 1.1 | 1368.8 ± 8.4 | 1.697 ± 0.046
313.15 K, x1 = 0.9041 | 904.74 ± 1.1 | 1380.6 ± 8.4 | 1.541 ± 0.042
313.15 K, x1 = 1 | 917.9 ± 1.1 | 1398 ± 8.5 | 1.4 ± 0.038
318.15 K, x1 = 0.1136 | 817.68 ± 1.1 | 1295.7 ± 7.9 | 3.979 ± 0.11
318.15 K, x1 = 0.2326 | 827.96 ± 1.1 | 1300.3 ± 8 | 3.341 ± 0.092
318.15 K, x1 = 0.3469 | 838.28 ± 1.1 | 1306.2 ± 8 | 2.843 ± 0.078
318.15 K, x1 = 0.4541 | 848.61 ± 1.1 | 1312.9 ± 8 | 2.447 ± 0.067
318.15 K, x1 = 0.5549 | 858.95 ± 1.1 | 1320.6 ± 8.1 | 2.128 ± 0.058
318.15 K, x1 = 0.6498 | 869.3 ± 1.1 | 1328.9 ± 8.1 | 1.869 ± 0.051
318.15 K, x1 = 0.7293 | 878.48 ± 1.1 | 1337.1 ± 8.2 | 1.683 ± 0.046
318.15 K, x1 = 0.8244 | 890.11 ± 1.1 | 1348.6 ± 8.2 | 1.498 ± 0.041
318.15 K, x1 = 0.9041 | 900.48 ± 1.1 | 1360.3 ± 8.3 | 1.377 ± 0.037
318.15 K, x1 = 1 | 913.8 ± 1.1 | 1378 ± 8.4 | 1.276 ± 0.034

CCN(CC)c1ccccc1 [N,N-diethylaniline] + CCCCCCCCO
Conditions | mass density [kg/m3] | speed of sound [m/s] | viscosity [mPa·s]
303.15 K, x1 = 0.1157 | 828.58 ± 1.1 | 1338.2 ± 8.2 | 5.469 ± 0.15
303.15 K, x1 = 0.2012 | 836.5 ± 1.1 | 1342.6 ± 8.2 | 4.863 ± 0.13
303.15 K, x1 = 0.3115 | 847.11 ± 1.1 | 1349.2 ± 8.3 | 4.178 ± 0.11
303.15 K, x1 = 0.4221 | 858.24 ± 1.1 | 1357.3 ± 8.3 | 3.59 ± 0.097
303.15 K, x1 = 0.5111 | 867.57 ± 1.1 | 1364.9 ± 8.3 | 3.18 ± 0.086
303.15 K, x1 = 0.6217 | 879.68 ± 1.1 | 1375.9 ± 8.4 | 2.743 ± 0.074
303.15 K, x1 = 0.7135 | 890.17 ± 1.1 | 1386.8 ± 8.5 | 2.433 ± 0.066
303.15 K, x1 = 0.8063 | 901.22 ± 1.1 | 1399.4 ± 8.6 | 2.162 ± 0.059
303.15 K, x1 = 0.9045 | 913.42 ± 1.1 | 1414.7 ± 8.6 | 1.915 ± 0.052
303.15 K, x1 = 1 | 925.8 ± 1.1 | 1432 ± 8.7 | 1.711 ± 0.046
308.15 K, x1 = 0.1157 | 824.98 ± 1.1 | 1317.3 ± 8.1 | 4.653 ± 0.13
308.15 K, x1 = 0.2012 | 832.86 ± 1.1 | 1321.9 ± 8.1 | 4.155 ± 0.11
308.15 K, x1 = 0.3115 | 843.43 ± 1.1 | 1329.1 ± 8.1 | 3.59 ± 0.098
308.15 K, x1 = 0.4221 | 854.51 ± 1.1 | 1337.7 ± 8.2 | 3.132 ± 0.085
308.15 K, x1 = 0.5111 | 863.81 ± 1.1 | 1345.7 ± 8.2 | 2.762 ± 0.075
308.15 K, x1 = 0.6217 | 875.86 ± 1.1 | 1357.3 ± 8.3 | 2.397 ± 0.065
308.15 K, x1 = 0.7135 | 886.3 ± 1.1 | 1368.4 ± 8.4 | 2.137 ± 0.058
308.15 K, x1 = 0.8063 | 897.3 ± 1.1 | 1381.4 ± 8.4 | 1.913 ± 0.052
308.15 K, x1 = 0.9045 | 909.45 ± 1.1 | 1397.3 ± 8.5 | 1.704 ± 0.046
308.15 K, x1 = 1 | 921.8 ± 1.1 | 1416 ± 8.6 | 1.537 ± 0.041
313.15 K, x1 = 0.1157 | 820.38 ± 1.1 | 1300 ± 7.9 | 3.991 ± 0.11
313.15 K, x1 = 0.2012 | 828.3 ± 1.1 | 1304.5 ± 8 | 3.58 ± 0.097
313.15 K, x1 = 0.3115 | 838.94 ± 1.1 | 1311.6 ± 8 | 3.112 ± 0.085
313.15 K, x1 = 0.4221 | 850.09 ± 1.1 | 1320.2 ± 8.1 | 2.707 ± 0.074
313.15 K, x1 = 0.5111 | 859.45 ± 1.1 | 1328.2 ± 8.1 | 2.422 ± 0.066
313.15 K, x1 = 0.6217 | 871.58 ± 1.1 | 1339.5 ± 8.2 | 2.118 ± 0.057
313.15 K, x1 = 0.7135 | 882.1 ± 1.1 | 1350.5 ± 8.3 | 1.899 ± 0.051
313.15 K, x1 = 0.8063 | 893.18 ± 1.1 | 1363.3 ± 8.3 | 1.708 ± 0.046
313.15 K, x1 = 0.9045 | 905.42 ± 1.1 | 1379.3 ± 8.4 | 1.536 ± 0.041
313.15 K, x1 = 1 | 917.9 ± 1.1 | 1398 ± 8.5 | 1.4 ± 0.038
318.15 K, x1 = 0.1157 | 815.85 ± 1.1 | 1286.3 ± 7.9 | 3.504 ± 0.095
318.15 K, x1 = 0.2012 | 823.79 ± 1.1 | 1290.4 ± 7.9 | 3.151 ± 0.085
318.15 K, x1 = 0.3115 | 834.47 ± 1.1 | 1297 ± 7.9 | 2.748 ± 0.074
318.15 K, x1 = 0.4221 | 845.67 ± 1.1 | 1304.9 ± 8 | 2.398 ± 0.065
318.15 K, x1 = 0.5111 | 855.06 ± 1.1 | 1312.4 ± 8 | 2.154 ± 0.058
318.15 K, x1 = 0.6217 | 867.24 ± 1.1 | 1323 ± 8.1 | 1.889 ± 0.051
318.15 K, x1 = 0.7135 | 877.8 ± 1.1 | 1333.2 ± 8.1 | 1.701 ± 0.046
318.15 K, x1 = 0.8063 | 888.93 ± 1.1 | 1345.1 ± 8.2 | 1.535 ± 0.041
318.15 K, x1 = 0.9045 | 901.24 ± 1.1 | 1360.1 ± 8.3 | 1.388 ± 0.037
318.15 K, x1 = 1 | 913.8 ± 1.1 | 1378 ± 8.4 | 1.276 ± 0.034
